The text below walks through data of ChEMBL document CHEMBL5131481, “Topoisomerase IIα inhibitory and antiproliferative activity of dihydroxylated 2,6-diphenyl-4-fluorophenylpyridines: Design, synthesis, and structure-activity relationships” (Bioorg Med Chem Lett, 2022).

The test system of one assay is HeLa. The assay can be described thus: Antiproliferative activity against human HeLa cells assessed as inhibition of cell proliferation. It counts as functional, cell-based.
A further assay has as its system T47D. The assay can be described thus: Antiproliferative activity against human T47D cells assessed as inhibition of cell proliferation. Format: functional, cell-based.
Assay [1] concerns the target DNA topoisomerase 2-alpha (Homo sapiens) (UniProt P11388). The assay can be described thus: Inhibition of topoisomerase 2alpha (unknown origin) assessed as relaxation of supercoiled plasmid pBR322 DNA at 100 uM relative to control.
In the next assay the test system is DU-145. The assay can be described thus: Antiproliferative activity against human DU-145 cells assessed as inhibition of cell proliferation. Format: functional, cell-based.
The test system of a further assay is HCT-15. The assay can be described thus: Antiproliferative activity against human HCT-15 cells assessed as inhibition of cell proliferation. It counts as functional, cell-based.

Counter-ions that a name gives are not always drawn.

DNA topoisomerase 2-alpha (Homo sapiens), sequence (P11388 whole entry): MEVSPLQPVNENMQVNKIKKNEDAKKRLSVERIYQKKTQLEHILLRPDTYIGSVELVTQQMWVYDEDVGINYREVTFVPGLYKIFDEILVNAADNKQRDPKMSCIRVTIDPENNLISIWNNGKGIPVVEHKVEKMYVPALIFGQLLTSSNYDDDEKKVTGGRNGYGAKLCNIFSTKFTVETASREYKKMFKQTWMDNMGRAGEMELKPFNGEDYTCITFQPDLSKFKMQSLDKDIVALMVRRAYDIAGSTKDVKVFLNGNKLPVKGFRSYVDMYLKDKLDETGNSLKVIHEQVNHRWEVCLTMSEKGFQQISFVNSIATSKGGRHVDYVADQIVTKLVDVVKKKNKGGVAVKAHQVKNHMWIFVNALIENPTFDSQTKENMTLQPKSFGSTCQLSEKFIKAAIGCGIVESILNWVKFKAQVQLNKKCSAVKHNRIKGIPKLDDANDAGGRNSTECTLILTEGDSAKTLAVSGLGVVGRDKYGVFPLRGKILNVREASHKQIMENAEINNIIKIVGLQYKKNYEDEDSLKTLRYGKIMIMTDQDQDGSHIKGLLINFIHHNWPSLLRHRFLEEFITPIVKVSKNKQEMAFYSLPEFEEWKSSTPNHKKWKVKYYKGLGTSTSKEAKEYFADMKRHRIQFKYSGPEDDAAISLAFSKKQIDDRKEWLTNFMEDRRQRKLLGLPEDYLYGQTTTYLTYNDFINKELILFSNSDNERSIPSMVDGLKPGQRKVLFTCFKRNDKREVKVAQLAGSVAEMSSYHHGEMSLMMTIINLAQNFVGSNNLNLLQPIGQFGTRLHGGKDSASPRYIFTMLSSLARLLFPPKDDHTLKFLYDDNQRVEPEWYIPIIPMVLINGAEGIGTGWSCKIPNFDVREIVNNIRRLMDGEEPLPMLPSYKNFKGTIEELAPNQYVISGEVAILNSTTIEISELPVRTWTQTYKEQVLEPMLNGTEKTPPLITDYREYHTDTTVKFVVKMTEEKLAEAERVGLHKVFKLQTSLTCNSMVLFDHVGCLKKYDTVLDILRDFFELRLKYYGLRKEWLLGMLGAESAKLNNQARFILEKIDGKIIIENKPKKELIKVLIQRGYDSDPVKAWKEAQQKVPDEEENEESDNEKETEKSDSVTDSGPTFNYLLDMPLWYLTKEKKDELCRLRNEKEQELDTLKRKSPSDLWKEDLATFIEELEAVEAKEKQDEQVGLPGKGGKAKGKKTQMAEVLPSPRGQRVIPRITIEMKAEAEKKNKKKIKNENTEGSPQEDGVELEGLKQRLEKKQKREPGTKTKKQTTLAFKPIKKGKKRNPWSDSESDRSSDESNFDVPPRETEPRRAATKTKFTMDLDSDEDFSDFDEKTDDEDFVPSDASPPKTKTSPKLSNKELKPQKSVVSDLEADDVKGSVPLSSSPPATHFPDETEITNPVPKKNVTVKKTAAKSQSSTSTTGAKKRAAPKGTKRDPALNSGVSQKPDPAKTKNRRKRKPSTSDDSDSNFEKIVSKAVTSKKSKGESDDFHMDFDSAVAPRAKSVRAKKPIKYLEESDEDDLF

`Oc1ccccc1-c1cc(-c2ccc(OC(F)(F)F)cc2)cc(-c2ccccc2O)n1`: the IC50 in the assay with HeLa was more than 50 µM; in the assay on T47D, more than 50 µM; in the assay on DU-145, 20.3 µM; with HCT-15, more than 50 µM. For the same compound, the inhibition in assay [1] was 0%.

Consider `Oc1ccc(-c2cc(-c3ccc(F)cc3)cc(-c3ccccc3O)n2)cc1`, for which the half-maximal inhibitory concentration (IC50) in the assay on HeLa, in the assay on T47D, in the assay on DU-145 and in the assay with HCT-15 was more than 50 µM in each case. In addition, the inhibition in assay [1] came out at 0%.

With `Oc1ccc(-c2cc(-c3ccccc3F)cc(-c3ccc(O)cc3)n2)cc1`, the half-maximal inhibitory concentration (IC50) in the assay with HeLa is more than 50 µM; in the assay with T47D, 15.1 µM; with DU-145, 7.78 µM; in the assay with HCT-15, 8.18 µM. In assay [1], the inhibition is 0%.

With `Oc1ccccc1-c1cc(-c2ccccc2F)cc(-c2ccccc2O)n1`, the IC50 with HeLa, in the assay with T47D, in the assay on DU-145 and in the assay on HCT-15 was more than 50 µM in each case. Further, the inhibition in assay [1] came out at 10.3%.

Turning to `Oc1cccc(-c2cc(-c3ccc(C(F)(F)F)cc3)cc(-c3ccccc3O)n2)c1`, the half-maximal inhibitory concentration (IC50) in the assay with HeLa, with T47D, with DU-145 and in the assay with HCT-15 was more than 50 µM in each case. Moreover, in assay [1], the inhibition was determined as 0.2%.

Consider `Oc1cccc(-c2cc(-c3cccc(OC(F)(F)F)c3)cc(-c3cccc(O)c3)n2)c1`, for which the IC50 in the assay with HeLa is more than 50 µM; in the assay with T47D, 6.74 µM; in the assay with DU-145 it was more than 50 µM; with HCT-15, more than 50 µM. In addition, in assay [1], the inhibition stood at 5.7%.

`Oc1cccc(-c2cc(-c3ccccc3C(F)(F)F)cc(-c3cccc(O)c3)n2)c1`: the IC50 came out at 15.2 µM with HeLa, 4.35 µM in the assay on T47D, 2.87 µM in the assay on DU-145 and 8.15 µM in the assay on HCT-15. For the same compound, in assay [1], the inhibition came to 34%.

As to `COc1cccc2c1C(=O)c1c(O)c3c(c(O)c1C2=O)C[C@@](O)(C(=O)CO)C[C@@H]3O[C@H]1C[C@H](N)[C@H](O)[C@H](C)O1` [DOXORUBICIN HYDROCHLORIDE], the half-inhibitory concentration (IC50) was determined as 5.04 µM in the assay on HeLa, 4.59 µM in the assay on T47D, 5.85 µM in the assay on DU-145 and 1.28 µM in the assay on HCT-15.

In the case of `Oc1ccccc1-c1cc(-c2ccccc2C(F)(F)F)cc(-c2ccccc2O)n1`, the IC50 with HeLa stood at 5.8 µM; in the assay with T47D it was 22.5 µM; in the assay with DU-145 it was 4.77 µM; with HCT-15, 3.97 µM. Also, in assay [1], the inhibition was determined as 0%.

Turning to `Oc1ccc(-c2cc(-c3ccccc3C(F)(F)F)cc(-c3ccc(O)cc3)n2)cc1`, the half-maximal inhibitory concentration (IC50) in the assay on HeLa, in the assay with T47D, with DU-145 and in the assay on HCT-15 was more than 50 µM in each case. The inhibition in assay [1] is 0%.

For `Oc1cccc(-c2cc(-c3ccc(OC(F)(F)F)cc3)cc(-c3ccccc3O)n2)c1`, the IC50 turned out to be 20.6 µM with HeLa, 7.71 µM in the assay on T47D, 21.1 µM in the assay on DU-145 and 9.41 µM with HCT-15. Further, in assay [1], the inhibition worked out at 0%.

For the compound `Oc1ccccc1-c1cc(-c2ccc(F)cc2)cc(-c2ccccc2O)n1`, the half-inhibitory concentration (IC50) in the assay on HeLa, with T47D, in the assay on DU-145 and with HCT-15 was more than 50 µM each time. Moreover, the inhibition in assay [1] was 7.2%.

Take `Oc1cccc(-c2cc(-c3ccc(OC(F)(F)F)cc3)cc(-c3cccc(O)c3)n2)c1`: the half-maximal inhibitory concentration (IC50) in the assay with HeLa is 18.7 µM; with T47D, 9.82 µM; in the assay with DU-145 it was more than 50 µM; with HCT-15, more than 50 µM. The inhibition in assay [1] was 6%.

For the compound `Oc1cccc(-c2cc(-c3ccccc3OC(F)(F)F)cc(-c3ccccc3O)n2)c1`, the IC50 in the assay on HeLa was 15.2 µM; with T47D it was 2.68 µM; with DU-145, more than 50 µM; with HCT-15 it was 3.24 µM. Moreover, the inhibition in assay [1] amounted to 0%.

`Oc1ccc(-c2cc(-c3ccccc3OC(F)(F)F)cc(-c3ccccc3O)n2)cc1`: the IC50 in the assay on HeLa turned out to be 6.01 µM; in the assay with T47D it was 2.05 µM; in the assay with DU-145, 4.19 µM; with HCT-15 it was 9.82 µM. In addition, the inhibition in assay [1] was 0%.

As to `Oc1cccc(-c2cc(-c3ccc(F)cc3)cc(-c3ccccc3O)n2)c1`, the IC50 in the assay on HeLa, with T47D, in the assay with DU-145 and in the assay on HCT-15 was more than 50 µM in each case. The inhibition in assay [1] is 1.3%.

Take `Oc1cccc(-c2cc(-c3cccc(OC(F)(F)F)c3)cc(-c3ccccc3O)n2)c1`: the 50% inhibitory concentration (IC50) in the assay on HeLa is 14.9 µM; in the assay with T47D, 5.39 µM; with DU-145, more than 50 µM; in the assay with HCT-15, 2.74 µM. Further, in assay [1], the inhibition was determined as 0%.

Regarding `Oc1cccc(-c2cc(-c3cccc(F)c3)cc(-c3ccccc3O)n2)c1`, the IC50 in the assay on HeLa, with T47D, with DU-145 and in the assay on HCT-15 was more than 50 µM throughout. The inhibition in assay [1] amounted to 8.8%.

As for `Oc1ccc(-c2cc(-c3ccc(C(F)(F)F)cc3)cc(-c3ccccc3O)n2)cc1`, the half-maximal inhibitory concentration (IC50) in the assay with HeLa, in the assay on T47D, with DU-145 and with HCT-15 was more than 50 µM throughout. Further, the inhibition in assay [1] amounted to 0.1%.

Turning to `Oc1ccc(-c2cc(-c3cccc(OC(F)(F)F)c3)cc(-c3ccc(O)cc3)n2)cc1`, the IC50 in the assay on HeLa, with T47D, in the assay with DU-145 and with HCT-15 was more than 50 µM each time. Besides, the inhibition in assay [1] was found to be 4.4%.

`Oc1ccccc1-c1cc(-c2cccc(C(F)(F)F)c2)cc(-c2ccccc2O)n1`: the IC50 with HeLa, in the assay with T47D, with DU-145 and in the assay on HCT-15 was more than 50 µM each time. For the same compound, the inhibition in assay [1] is 1.2%.

In the case of `Oc1ccc(-c2cc(-c3cccc(C(F)(F)F)c3)cc(-c3ccccc3O)n2)cc1`, the concentration for half-maximal inhibition (IC50) in the assay with HeLa, in the assay on T47D, with DU-145 and in the assay with HCT-15 was more than 50 µM in each case. The inhibition in assay [1] was found to be 0.1%.

As to `Oc1cccc(-c2cc(-c3ccccc3F)cc(-c3ccccc3O)n2)c1`, the 50% inhibitory concentration (IC50) with HeLa worked out at 31.1 µM; in the assay with T47D, 24.2 µM; in the assay with DU-145 it was 35.6 µM; in the assay on HCT-15 it was 8.47 µM. Also, the inhibition in assay [1] was found to be 1%.

As for `Oc1ccccc1-c1cc(-c2ccc(C(F)(F)F)cc2)cc(-c2ccccc2O)n1`, the IC50 with HeLa, with T47D, with DU-145 and with HCT-15 was more than 50 µM each time. In addition, the inhibition in assay [1] is 0%.

Turning to `Oc1ccccc1-c1cc(-c2ccccc2OC(F)(F)F)cc(-c2ccccc2O)n1`, the IC50 came to 9.75 µM with HeLa, 1.73 µM in the assay on T47D, 5.85 µM in the assay on DU-145 and 4.52 µM with HCT-15. For the same compound, the inhibition in assay [1] worked out at 12.5%.

As for `Oc1ccc(-c2cc(-c3cccc(C(F)(F)F)c3)cc(-c3ccc(O)cc3)n2)cc1`, the IC50 with HeLa, with T47D, with DU-145 and in the assay with HCT-15 was more than 50 µM each time. In assay [1], the inhibition turned out to be 0%.

In the case of `Oc1ccc(-c2cc(-c3cccc(C(F)(F)F)c3)cc(-c3cccc(O)c3)n2)cc1`, the IC50 in the assay with HeLa turned out to be 16.2 µM; with T47D, 2.63 µM; in the assay on DU-145, 11.1 µM; in the assay on HCT-15, 9.54 µM. Also, the inhibition in assay [1] worked out at 28%.
